The nature of the data set: in vitro. It counts as in vitro ADME, human. As to the method: For several compounds only human liver microsomal stability was tested. […] The microsomal assays were carried out with and without the addition of NADPH at a final concentration of 1 mM. For negative control samples, NADPH reagent was not added. […] Note that compounds undergo only Phase I metabolism in liver microsomes.

The mark [1] stands for this setting: human liver microsomes 0.5 mg/mL, with NADPH, compound 0.5 μM, 37° C., read-out: Human Liver Microsomal Stability t1/2.
Setting [2] is: human liver microsomes 0.5 mg/mL, with NADPH, compound 0.5 μM, read-out: Human Liver Microsomal Stability CLint (uL/min/mg liver) (converted).
The mark [3] stands for this setting: human liver microsomes, no NADPH, compound 0.5 μM.

Here are results for 26 compounds from patent publication US20250034201A1, “PRODRUGS OF GANAXOLONE” (priority 2022, published 2025).

Read-outs that look alike come from different tables or passages of the source.

As for `CCOCCC(=O)OCC(=O)O[C@]1(C)CC[C@@]2(C)[C@@H](CC[C@@H]3[C@@H]2CC[C@]2(C)[C@@H](C(C)=O)CC[C@@H]32)C1` [Compound 203], the half-life under setting [1] worked out at 2.24 min. Also, the microsomal CLint under setting [2] was 618 µL/min/mg. In addition, the “Human Liver Microsomal Stability no NADPH, % remain 1 h” value under setting [3] is reported as 0.79%.
Taken in the same sequence, the figures for `COCCOCC(=O)OCC(=O)O[C@]1(C)CC[C@@]2(C)[C@@H](CC[C@@H]3[C@@H]2CC[C@]2(C)[C@@H](C(C)=O)CC[C@@H]32)C1` [Compound 204] were 4.12 min, 337 µL/min/mg and 10.5%.
Consider `COCCOCCOCC(=O)OCC(=O)O[C@]1(C)CC[C@@]2(C)[C@@H](CC[C@@H]3[C@@H]2CC[C@]2(C)[C@@H](C(C)=O)CC[C@@H]32)C1` [Compound 205], for which the half-life under setting [1] was 3.58 min. Also, the microsomal CLint under setting [2] was 387 µL/min/mg. The “Human Liver Microsomal Stability no NADPH, % remain 1 h” value under setting [3] is listed as 5.7%.
Take `CC(=O)[C@H]1CC[C@H]2[C@@H]3CC[C@H]4C[C@](C)(OC(=O)COC(=O)[C@H](C)N5CCOCC5)CC[C@]4(C)[C@H]3CC[C@]12C` [Compound 211]: the half-life under setting [1] worked out at 10.5 min. The microsomal CLint under setting [2] was 132 µL/min/mg. The “Human Liver Microsomal Stability no NADPH, % remain 1 h” value under setting [3] stood at 27%.
On to `CC(=O)[C@H]1CC[C@H]2[C@@H]3CC[C@H]4C[C@](C)(OC(=O)COC(=O)[C@@H](C)N5CCOCC5)CC[C@]4(C)[C@H]3CC[C@]12C` [Compound 212], for which the “Comments: production of GNX (ganaxolone) in human liver microsomes” value (from here on “Comments: production of GNX (ganaxolone)”) (human liver microsomes) is “In human small amount of GNX produced”. Besides, for the setting “human, microsomes”, the half-life is 14.3 min; the microsomal CLint was 96.9 µL/min/mg; the “Human Liver Microsomal Stability no NADPH, % remain 1 h” value came out at 99%.
For `CC(=O)[C@H]1CC[C@H]2[C@@H]3CC[C@H]4C[C@](C)(OC(=O)COC(=O)C(C)(C)N5CCOCC5)CC[C@]4(C)[C@H]3CC[C@]12C` [Compound 213], where the note is “human liver microsomes”, the “Comments: production of GNX (ganaxolone)” value is “In human small amount of GNX produced”. In addition, the half-life under setting [1] is 27.3 min. Besides, the microsomal CLint under setting [2] was 50.7 µL/min/mg. Besides, under setting [3], the “Human Liver Microsomal Stability no NADPH, % remain 1 h” value is given as 98%.
As for `CC(=O)[C@H]1CC[C@H]2[C@@H]3CC[C@H]4C[C@](C)(OC(=O)COC(=O)CNC(=O)[C@@H](N)C(C)C)CC[C@]4(C)[C@H]3CC[C@]12C` [Compound 214], under setting [1], the half-life was 161 min. Further, the microsomal CLint under setting [2] is 8.6 µL/min/mg. The “Human Liver Microsomal Stability no NADPH, % remain 1 h” value under setting [3] amounted to 79.5%.
Regarding `CC(=O)[C@H]1CC[C@H]2[C@@H]3CC[C@H]4C[C@](C)(OC(=O)COC(=O)[C@H](CC(C)C)NC(=O)[C@@H](N)CC(C)C)CC[C@]4(C)[C@H]3CC[C@]12C` [Compound 215], the half-life under setting [1] was determined as 257 min. For the same compound, the microsomal CLint under setting [2] was 5.39 µL/min/mg. Besides, the “Human Liver Microsomal Stability no NADPH, % remain 1 h” value under setting [3] was found to be 88%.
Take `CC(=O)[C@H]1CC[C@H]2[C@@H]3CC[C@H]4C[C@](C)(OC(=O)COC(=O)CNC(=O)[C@H](C)N)CC[C@]4(C)[C@H]3CC[C@]12C` [Compound 216]: the half-life under setting [1] came to 192 min. Under setting [2], the microsomal CLint was 7.22 µL/min/mg. Moreover, the “Human Liver Microsomal Stability no NADPH, % remain 1 h” value under setting [3] was determined as 80%.
In the same order, the values of `CC(=O)[C@H]1CC[C@H]2[C@@H]3CC[C@H]4C[C@](C)(CC(=O)COC(=O)NCCN(C)C)CC[C@]4(C)[C@H]3CC[C@]12C` [Compound 217] are 316 min, 4.39 µL/min/mg and 99.7%.
Turning to `CC(=O)[C@H]1CC[C@H]2[C@@H]3CC[C@H]4C[C@](C)(OC(=O)COC(=O)OC5CNC5)CC[C@]4(C)[C@H]3CC[C@]12C` [Compound 222], the “Comments: production of GNX (ganaxolone)” value (human liver microsomes) is given as “In human no GNX produced”. In addition, the half-life under setting [1] amounted to 63.7 min. Moreover, the microsomal CLint under setting [2] was 21.8 µL/min/mg. In addition, the “Human Liver Microsomal Stability no NADPH, % remain 1 h” value under setting [3] is given as 61%.
With `CC(=O)[C@H]1CC[C@H]2[C@@H]3CC[C@H]4C[C@](C)(OC(=O)COC(=O)C(C)(C)OC(=O)CN(C)C)CC[C@]4(C)[C@H]3CC[C@]12C` [Compound 227], the “Comments: production of GNX (ganaxolone)” value is “In human no GNX produced”. In addition, for the setting “human, microsomes”, the half-life is 23.9 min; the microsomal CLint worked out at 58.1 µL/min/mg; the “Human Liver Microsomal Stability no NADPH, % remain 1 h” value stood at 71%.
Consider `CC(=O)COCN(CCO)CC(=O)OC(C)(C)C(=O)OCC(=O)O[C@]1(C)CC[C@@]2(C)[C@@H](CC[C@@H]3[C@@H]2CC[C@]2(C)[C@@H](C(C)=O)CC[C@@H]32)C1` [Compound 230], for which the half-life under setting [1] came to 2.94 min. Moreover, under setting [2], the microsomal CLint was 471 µL/min/mg. In addition, the “Human Liver Microsomal Stability no NADPH, % remain 1 h” value under setting [3] was 1%.
Taken in the same sequence, the figures for `CC(=O)[C@H]1CC[C@H]2[C@@H]3CC[C@H]4C[C@](C)(OC(=O)COC(=O)C(C)(C)OC(=O)CN(CCCO)CCCO)CC[C@]4(C)[C@H]3CC[C@]12C` [Compound 231] were 5.3 min, 261 µL/min/mg and 98%.
With `CNC(C)(C)C(=O)OCC(=O)O[C@]1(C)CC[C@@]2(C)[C@@H](CC[C@@H]3[C@@H]2CC[C@]2(C)[C@@H](C(C)=O)CC[C@@H]32)C1` [Compound 232], the half-life under setting [1] was 13.5 min. Moreover, under setting [2], the microsomal CLint was 103 µL/min/mg. The “Human Liver Microsomal Stability no NADPH, % remain 1 h” value under setting [3] turned out to be 27%.
Take `CC(=O)[C@H]1CC[C@H]2[C@@H]3CC[C@H]4C[C@](C)(OC(=O)COC(=O)C(C)(C)OC(=O)CN(C)CCO)CC[C@]4(C)[C@H]3CC[C@]12C` [Compound 233]: the half-life under setting [1] turned out to be 5.3 min. Further, the microsomal CLint under setting [2] was 261 µL/min/mg. For the same compound, the “Human Liver Microsomal Stability no NADPH, % remain 1 h” value under setting [3] is 5%.
In the same order, the values of `COCCN(CCO)CC(=O)OC(C)(C)C(=O)OCC(=O)O[C@]1(C)CC[C@@]2(C)[C@@H](CC[C@@H]3[C@@H]2CC[C@]2(C)[C@@H](C(C)=O)CC[C@@H]32)C1` [Compound 235] are 5.2 min, 269 µL/min/mg and 36%.
Take `COCCN(CCOC(C)=O)CC(=O)OC(C)(C)C(=O)OCC(=O)O[C@]1(C)CC[C@@]2(C)[C@@H](CC[C@@H]3[C@@H]2CC[C@]2(C)[C@@H](C(C)=O)CC[C@@H]32)C1` [Compound 236]: under “human, microsomes”, the half-life came out at 3.72 min; the microsomal CLint turned out to be 372 µL/min/mg; the “Human Liver Microsomal Stability no NADPH, % remain 1 h” value was below 1%.
Consider `CC(=O)OCCCN(CCCOC(C)=O)CC(=O)OC(C)(C)C(=O)OCC(=O)O[C@]1(C)CC[C@@]2(C)[C@@H](CC[C@@H]3[C@@H]2CC[C@]2(C)[C@@H](C(C)=O)CC[C@@H]32)C1` [Compound 237], for which, under “human, microsomes”, the half-life is 5.18 min; the microsomal CLint amounted to 267 µL/min/mg; the “Human Liver Microsomal Stability no NADPH, % remain 1 h” value is given as below 1%.
For `CC(=O)[C@H]1CC[C@H]2[C@@H]3CC[C@H]4C[C@](C)(OC(=O)COC(=O)C(C)(C)OC(=O)CN(C)CCOC(=O)CN)CC[C@]4(C)[C@H]3CC[C@]12C` [Compound 241], under “human, microsomes”, the half-life turned out to be 3.9 min; the microsomal CLint was 356 µL/min/mg; the “Human Liver Microsomal Stability no NADPH, % remain 1 h” value is 3.68%.
In the case of `CC(=O)[C@H]1CC[C@H]2[C@@H]3CC[C@H]4C[C@](C)(OC(=O)COC(=O)C(C)(C)OC(=O)CN(C)CCCO)CC[C@]4(C)[C@H]3CC[C@]12C` [Compound 245], the half-life under setting [1] stood at 11.4 min. The microsomal CLint under setting [2] is 122 µL/min/mg. Moreover, the “Human Liver Microsomal Stability no NADPH, % remain 1 h” value under setting [3] was 69.7%.
In the same order, the values of `CC(=O)[C@H]1CC[C@H]2[C@@H]3CC[C@H]4C[C@](C)(OC(=O)COC(=O)CO)CC[C@]4(C)[C@H]3CC[C@]12C` [Compound 247] are 2.01 min, 689 µL/min/mg and 1.1%.
Turning to `CC(=O)[C@H]1CC[C@H]2[C@@H]3CC[C@H]4C[C@](C)(OC(=O)CSCCN)CC[C@]4(C)[C@H]3CC[C@]12C` [Compound 302], the “Comments: production of GNX (ganaxolone)” value (human liver microsomes) is “In human GNX not produced”. For the setting “human, microsomes”, the half-life worked out at 248 min; the microsomal CLint is 5.59 µL/min/mg; the “Human Liver Microsomal Stability no NADPH, % remain 1 h” value was found to be 99%.
In the case of `CC(=O)[C@H]1CC[C@H]2[C@@H]3CC[C@H]4C[C@](C)(OC(=O)CSCCOC(=O)CN5CCOCC5)CC[C@]4(C)[C@H]3CC[C@]12C` [Compound 303], where the note is “human liver microsomes”, the “Comments: production of GNX (ganaxolone)” value is given as “In human GNX not produced”. The half-life under setting [1] stood at 2.48 min. Also, the microsomal CLint under setting [2] is 599 µL/min/mg. For the same compound, the “Human Liver Microsomal Stability no NADPH, % remain 1 h” value under setting [3] was 90%.
`CC(=O)[C@H]1CC[C@H]2[C@@H]3CC[C@H]4C[C@](C)(OC(=O)CSC(=N)N)CC[C@]4(C)[C@H]3CC[C@]12C` [Compound 304]: for the setting “human liver microsomes”, the “Comments: production of GNX (ganaxolone)” value was “In human small amount of GNX produced”. Besides, under setting [1], the half-life was found to be 173 min. Besides, the microsomal CLint under setting [2] was 8.03 µL/min/mg. The “Human Liver Microsomal Stability no NADPH, % remain 1 h” value under setting [3] is 83.8%.
In the same order, the values of `CC(=O)[C@H]1CC[C@H]2[C@@H]3CC[C@H]4C[C@](C)(OC(=O)CSC(C)(C)C(=O)O)CC[C@]4(C)[C@H]3CC[C@]12C` [Compound 305] are “In human small amount of GNX produced”, 171 min, 8.12 µL/min/mg and 98.8%.
